According to US11046700B2, “Substituted imidazo[1,2-a]pyrazines, pyrazolo[1,5-c]pyrimidines, pyrazolo[1,5-a]pyridines, and purines for the treatment of schistosomiasis” (Merck Patent GmbH, priority 2017, dated 2021):
pIC50: −log10 of the molar value.

Key:
S. mansoni adult worms = test: In vitro assay, S. mansoni adult worms; format: cell-based; details: Schistosoma mansoni; S. mansoni adult worms, in vitro; read-out: (a) Adult
Method: (§1) The routine biological assays using adult or juvenile worms and cytotoxicity assays using MRC-5 cells have been disclosed previously in Mansour, N. R., et al. (2016). “High Throughput Screening Identifies Novel Lead Compounds with Activity against Larval, Juvenile and Schistosoma mansoni PLoS Negl Trap Dis 10(4): e0004659. Cytotoxicity assays using the HepG2 cell line were carried out as described in Molecular Diversity (2015) 19, 251-261.
(a) S. mansoni adult worms

[1] = system: S. mansoni juvenile worms; test: In vitro assay, S. mansoni juvenile worms; format: cell-based; details: Schistosoma mansoni; S. mansoni juvenile worms, in vitro; read-out: (b) Juvenile
Method: as §1
(b) S. mansoni juvenile worms

| pIC50 (S. mansoni adult worms) | pIC50 [1] | Structure (SMILES) |
| --- | --- | --- |
| 6.31 | 5.85 | Cc1nc2cnc(-c3cccc(C(F)(F)F)c3)cn2c1-c1ccc(O)cc1 [Example 4, 4-[2-methyl-6-[3-(trifluoromethyl)phenyl]imidazo[1,2-a]pyrazin-3-yl]phenol] |
| 6.28 | 5.90 | COc1cc(-c2c(C)nc3cnc(-c4cccc(C(F)(F)F)c4)cn23)ccc1O [Example 5, 2-methoxy-4-(2-methyl-6-(3-(trifluoromethyl)phenyl)imidazo[1,2-a]pyrazin-3-yl)] |
|  | 6.31 | Oc1ccc(-c2c(C(F)F)nc3cnc(-c4cccc(C(F)(F)F)c4)cn23)c(F)c1 [Example 11, 3-fluoro-4-[2-difluoromethyl-6-[3-(trifluoromethyl)phenyl]imidazo[1,2-a]pyrazin-3-yl]phenol] |
| > 7.31 | 6.60 | Oc1ccc(-c2c(C(F)(F)F)nc3cnc(-c4cccc(C(F)(F)F)c4)cn23)c(F)c1 [Example 12, 3-fluoro-4-[2-trifluoromethyl-6-[3-(trifluoromethyl)phenyl]imidazo[1,2-a]pyrazin-3-yl]phenol] |
| 7.14 | 7.20 | COc1ccc(-c2c(C3CC3)nc3cnc(-c4cccc(C(F)(F)F)c4)cn23)cc1O [Example 13, 2-methoxy-5-[2-cyclopropyl-6-[3-(trifluoromethyl)phenyl]imidazo[1,2-a]pyrazin-3-yl]phenol] |
|  | 6.64 | Oc1ccc(-c2c(C3CC3)nc3cnc(-c4cccc(C(F)(F)F)c4)cn23)c(F)c1 [Example 14, 3-fluoro-4-[2-cyclopropyl-6-[3-(trifluoromethyl)phenyl]imidazo[1,2-a]pyrazin-3-yl]phenol] |
|  | 6.54 | CCCc1nc2cnc(-c3cccc(C(F)(F)F)c3)cn2c1-c1ccc(OC)c(O)c1 [Example 18, 2-methoxy-5-[2-(propan-1-yl)-6-[3-(trifluoromethyl)phenyl]imidazo[1,2-a]pyrazin-3-yl]phenol] |
|  | 6.10 | COc1ccc(-c2c(C)nn3cnc(-c4cccc(C(F)(F)F)c4)cc23)cc1O [Example 23, 2-methoxy-5-(2-methyl-5-(3-(trifluoromethyl)phenyl)pyrazolo[1,5-c]pyrimidin-3-yl)phenol] |
|  | 6.96 | COc1ccc(-c2c(C(C)C)nn3cnc(-c4cccc(C(F)(F)F)c4)cc23)cc1O [Example 25, 5-(2-isopropyl-5-(3-(trifluoromethyl)phenyl)pyrazolo[1,5-c]pyrimidin-3-yl)-2-methoxyphenol] |
|  | 6.66 | COc1ccc(-c2c(CC3CC3)nc3cnc(-c4cccc(C(F)(F)F)c4)cn23)cc1O [Example 26, 2-methoxy-5-[2-(cyclopropylmethyl)-6-[3-(trifluoromethyl)phenyl]imidazo[1,2-a]pyrazin-3-yl]phenol] |
|  | 7.00 | Cc1nc2cnc(-c3cccc(S(F)(F)(F)(F)F)c3)cn2c1-c1c(F)cc(O)cc1F [Example 31, 3,5-difluoro-4-[2-methyl-6-[3-(pentafluorosulfanyl)phenyl]imidazo[1,2-a]pyrazin-3-yl]phenol] |
|  | 6.85 | Oc1cc(F)c(-c2c(CC(F)(F)F)nc3cnc(-c4ccc(F)c(C(F)(F)F)c4)cn23)c(F)c1 [Example 38, 3,5-difluoro-4-(6-(4-fluoro-3-(trifluoromethyl)phenyl)-2-(2,2,2-trifluoroethyl)imidazo[1,2-a]pyrazin-3-yl)phenol] |
|  | 6.96 | Cc1nn2cnc(-c3ccc(F)c(C(F)(F)F)c3)cc2c1-c1c(F)cc(O)cc1F [Example 42, 3,5-difluoro-4-(5-(4-fluoro-3-(trifluoromethyl)phenyl)-2-methylpyrazolo[1,5-c]pyrimidin-3-yl)phenol] |
|  | 6.96 | Fc1ccc(-c2cn3c(-c4ccc5[nH]ncc5c4F)c(C4CC4)nc3cn2)cc1C(F)(F)F [Example 43, 2-cyclopropyl-3-(4-fluoro-1H-indazol-5-yl)-6-(4-fluoro-3-(trifluoromethyl)phenyl)imidazo[1,2-a]pyrazine] |
